Assay results as given in publication PMC5850989 (Toxicology letters, 2016).

Tests used:
[1] = type: in vivo, SCID mice; details: 5 mg/kg i.p.
[2] = tested on: CaCo-2 cells; details: average for Enn A, A1, B and B1, ref Meca et al., 2012; cited from earlier work
[3] = ref Manyes et al., 2014, cited from earlier work
[4] = type: in vivo, CB-17 scid/scid mice; details: KB-3-1 xenograft
[5] = Evaluation of toxicological effects: body weight, behavior, histology; type: in vivo, SCID mice; details: 5 mg/kg i.p., short-term and 9-day schedules
[6] = 5 mg/kg b.w. i.p. daily, 9 days, mean ± SD (n = 4)

CC(C)C1NC(=O)C(C(C)C)OC(=O)C(C(C)C)N(C)C(=O)C(C(C)C)OC(=O)C(C(C)C)N(C)C(=O)C(C(C)C)OC1=O (stereo not shown) [Mono-demethylated-Enn B]
Concentration in colon, quantified with Enn B calibration curve ([1]; 2-days Enn B-treated SCID mice): 0.6 ± 0.09 µg/kg
Concentration in liver, quantified with Enn B calibration curve ([1]; 2-days Enn B-treated SCID mice): 0.7 ± 0.1 µg/kg

CC[C@H](C)[C@H]1C(=O)O[C@H](C(C)C)C(=O)N(C)[C@@H]([C@@H](C)CC)C(=O)O[C@H](C(C)C)C(=O)N(C)[C@@H]([C@@H](C)CC)C(=O)O[C@H](C(C)C)C(=O)N1C [Enn A]
Apparent mean bioavailability [2]: 80%
Detection in kidneys ([3]; Enn A-fed Wistar rats): no Enn A was detected in kidneys
Adverse effects (histological analyses, biochemical blood parameters) ([3]; repeated dose 20.91 mg Enn A/kg b.w./day, 28 days, feed): no adverse effects

CC(C)[C@H]1C(=O)O[C@H](C(C)C)C(=O)N(C)[C@@H](C(C)C)C(=O)O[C@H](C(C)C)C(=O)N(C)[C@@H](C(C)C)C(=O)O[C@H](C(C)C)C(=O)N1C [Enn B, Enniatin B]
Concentration in serum [4, 6]: 5.4 ± 0.2 µg/kg
Concentration in tumor [4, 6]: 2.8 ± 0.8 µg/kg
Degradation products (metabolites) in tumor tissues ([4]; 9-day treatment, 5 mg/kg i.p.): no degradation products could be found
Concentration in liver, quantified with Enn B calibration curve ([1]; 2-days Enn B-treated SCID mice): 2.9 ± 0.6 µg/kg
Metabolites in serum, brain, muscle and kidney ([1]; short-term treatment): no metabolites were found
Apparent signs of toxicity (food and fluid consumption, fatigue, body weight alterations) [5]: None of the treatment schedules showed apparent signs of toxicity
Apparent mean bioavailability [2]: 80%

CC[C@H](C)[C@H]1C(=O)O[C@H](C(C)C)C(=O)N(C)[C@@H]([C@@H](C)CC)C(=O)O[C@H](C(C)C)C(=O)N(C)[C@@H](C(C)C)C(=O)O[C@H](C(C)C)C(=O)N1C [Enn A1]
Apparent mean bioavailability [2]: 80%
